Test results reported in patent US9975853B2, “Tetrahydroisoquinolinone derivatives and their use in the inhibition of the HSP70 protein” (Julius-Maximilians-Universitaet Wuerzburg, priority 2014, dated 2018).

Test system: peripheral blood mononuclear cells (PBMCs)
Assay: Cell viability assay in non-malignant peripheral blood mononuclear cells
Assay type: cell-based, human
Conditions: 72 hours
Method: The effect of pharmacological Hsp70 inhibition on cell viability was analyzed after 72 hours of treatment in both non-malignant (mononuclear cells from the peripheral blood) and malignant lymphocytes (multiple myeloma cells). The mononuclear cells were separated from the peripheral blood of healthy donors by Ficoll-Hypaque density gradient centrifugation. The human cell line INA-6 represents a well-established model for multiple myeloma. The percentage of viable and apoptotic cell fractions was assessed using an annexin V-FITC/propidium iodide (PI) staining kit (Bender MedSystems, Vienna, Austria) according to manufacturer's instructions. In brief, cells were washed in PBS, incubated for 10 min in 100 ml binding buffer (10 mM HEPES/NaOH, pH 7.4, 140 mM NaCl, 2.5 mM CaCl2) containing 2.5 ml annexin V-FITC mix and 1 mg/ml propidium iodide (PI), subsequently diluted with 100 ml binding buffer and analyzed by flow cytometry (FACSCalibur/CELLQuest; Becton Dickinson, Heidelberg, Germany). […] To establish kill curves, concentrations of the tested compounds were titrated, and the measured viable cell fractions were further analyzed using the Prism Calculation Software (GraphPad Software Inc., La Jolla, USA). […]

COc1ccc(C2C(C(=O)Nc3cccc(C)n3)c3ccccc3C(=O)N2c2ccccc2)cc1 (stereo not drawn) [trans-7b, trans-3-(4-Methoxyphenyl)-N-(6-methylpyridin-2-yl)-1-oxo-2-phenyl-1,2,3,4-tetrahydroisoquinoline-4-carboxamide]
cytotoxic effect in primary PBMCs (viability): lack any cytotoxic effect even in higher micromolar concentrations
